Patent US11458132B2, “Quinolin-2(1H)-one inhibitors of Late SV40 Factor” (TRUSTEES OF BOSTON UNIVERSITY, priority 2020, dated 2022)

Assays:
[1] = target: T1, LSF and β-catenin (Homo sapiens, UniProt Q12800); assay: Immunoprecipitation of β-catenin probed for LSF in CRC cells; assay type: cell-based; settings: 1 μM, 16 hours, HT-29 and HCT-116 cells
T1 construct: In both these cell lines, LSF co-immunoprecipitated with β-catenin; endogenous in cells; host or cells: HT-29 and HCT-116
T1 sequence (Q12800 1-502): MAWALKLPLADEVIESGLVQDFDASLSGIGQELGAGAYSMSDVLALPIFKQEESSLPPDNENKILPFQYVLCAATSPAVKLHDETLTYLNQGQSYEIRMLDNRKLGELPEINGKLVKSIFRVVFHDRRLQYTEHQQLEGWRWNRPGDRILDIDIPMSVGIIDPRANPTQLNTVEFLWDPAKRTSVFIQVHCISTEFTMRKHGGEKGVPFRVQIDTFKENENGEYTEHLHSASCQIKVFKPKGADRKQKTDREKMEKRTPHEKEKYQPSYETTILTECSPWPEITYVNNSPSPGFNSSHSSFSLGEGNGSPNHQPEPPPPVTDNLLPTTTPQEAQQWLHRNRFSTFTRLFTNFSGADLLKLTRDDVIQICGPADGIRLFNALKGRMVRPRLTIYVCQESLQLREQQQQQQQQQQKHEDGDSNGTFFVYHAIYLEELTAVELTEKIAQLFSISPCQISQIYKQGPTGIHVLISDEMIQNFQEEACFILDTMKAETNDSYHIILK
Source text: Immunoprecipitation: The CRC cells were harvested. Proteins of interest were immunoprecipitated using the indicated antibodies at 1:100 concentration. The eluents were resolved by SDS polyacrylamide gel electrophoresis and probed with the indicated antibodies. All the antibodies for immunoblot and immunoprecipitation were acquired from Cell Signaling and were used at the recommended concentrations.

[2] = Plasma protein binding (PPB), human; assay type: in vitro ADME
[3] = Plasma protein binding (PPB), mouse; assay type: in vitro ADME
[4] = test system: colorectal cancer tumor; assay: Colorectal cancer tumor size and tumor tissue, FIGS. 22-24; assay type: in vivo, mouse; settings: treated versus control
[5] = test system: FH-B cells; assay: Cell spreading area / cell compaction by microscopy; assay type: cell-based, human; settings: 1 μM nocodazole, 30-60 minutes
Protocol: (§1) Cells were washed as before, treated with Phalloidin-iFluor 488 Reagent (abcam, ab176753) for 1 hour in 1-5% BSA in PBS, followed by Hoechst 33342 (Thermo Fisher Scientific, H3570) for 5 minutes. Mounting medium (Fisher Scientific, P10144) and cover slips were applied onto dried cells. Individually discernible cells were imaged on an Olympus Fluoview 10i. Using ImageJ, the phalloidin channel was thresholded and area and circularity values were measured and integrated into swarmplots using Python's seaborn library.
For time lapse microscopy, FH-B cells in high μ-dishes were incubated with CellBrite™ Steady Membrane stain (Biotium, 30108-T) for 30-40 minutes in the environmental chamber of a Nikon C2 Si microscope at 37° C. and 5% CO2. Treatments were added to the cells through a syringe to reach final concentrations of 4 μM FQI1 or 0.01% DMSO. Immediately thereafter, a time-lapse series was acquired by imaging every 30 seconds for 30 minutes at 20× magnification.

[6] = test system: RPE cells; assay: Cell spreading area and circularity by microscopy; assay type: cell-based; settings: 4 μM FQI1 or 1 μM nocodazole, 1 hour
Protocol: as §1

[7] = test system: FH-B cells; assay: Microtubule sedimentation assay; assay type: cell-based, human; settings: 4 μM FQI1 (15- and 30-minute pellets); 1 μM nocodazole or taxol 30 minutes
Protocol: (§2) Cell lysate preparation: For microtubule sedimentation assays, cells were treated as indicated in the figure legends, washed with PBS and incubated in 250 μl of microtubule sedimentation assay lysis buffer (100 mM PIPES pH 6.8, 2 M glycerol, 2 mM EGTA, 5 mM MgCl2, 0.1% Triton X-100) supplemented with 1 μM taxol, protease inhibitor cocktail (1:200, Abcam, ab201111) and phosphatase inhibitor cocktail (1:100, Abcam, ab201115) for 20 minutes at 37° C. Two hundred μl of scraped lysate was centrifuged at 21,000×g for 10 minutes at room temperature. Supernatants were saved as soluble fractions. Pellets were resuspended in 200 μl RIPA buffer (50 mM Tris HCl pH 8.0, 150 mM NaCl, 1% IGEPAL CA630, 0.05% deoxycholic acid) supplemented with 1.05% SDS, protease inhibitor cocktail (1:200) and phosphatase inhibitor cocktail (1:100) and incubated at 100° C. for 15 minutes. Pellet suspensions were centrifuged as before and supernatants were saved as pellet fractions.
(§3) Gel electrophoresis and immunoblotting: Microtubule sedimentation fractions and MLC2 analysis samples were separated by electrophoresis through tris-glycine and tricine polyacrylamide gels, respectively, which were transferred to PVDF membranes. Membranes with microtubule sedimentation fractions and MLC2 analysis samples were blocked in 5% milk in TBST and in 5% BSA in TBST, respectively. After overnight incubation with primary antibody at 4° C., the membranes were washed and incubated with secondary antibody for 1 hour at room temperature. Primary antibodies included anti-α-tubulin (1:2,000, Thermo Fisher Scientific, PA529444), anti-acetylated tubulin (1:1,000, Sigma-Aldrich, T7451), anti-phospho MYL9 (1:200, Thermo Fisher Scientific, PA517727), and anti-β-actin (1:5,000, Sigma-Aldrich, A1978). Secondary antibodies included Goat anti-Rabbit HRP (Thermo Fisher Scientific, 31460; 1:10,000 for anti-α-tubulin; 1:5,000 for anti-phospho MYL9), and Goat anti-Mouse HRP (Thermo Fisher Scientific, 62-6520; 1:5,000 for anti-acetylated tubulin; 1:10,000-1:20,000 for anti-β-actin). Membranes were placed into Pierce™ ECL Western Blotting Substrate (Thermo Fisher Scientific, 32106). Autoradiography film was exposed to each membrane for various times to ensure acquisition of non-saturated exposures. Band intensities were quantified from scanned films by densitometry using ImageJ.

[8] = test system: RPE cells; assay: Microtubule sedimentation assay; assay type: cell-based; settings: 4 μM FQI1 (15- and 30-minute pellets); 1 μM nocodazole or taxol 30 minutes
Protocol: as §2, §3

[9] = test system: RPE cells; assay: Wound healing assay; assay type: cell-based; settings: 4 μM FQI1 or 1 μM nocodazole, monitored 12 hours
Protocol: Wound healing analysis: Confluent RPE cells were synchronized by incubating with 2 mM thymidine for 18-20 hours. Two intersecting lines were drawn into the confluent cells using a pipette tip. A phase-contrast image was acquired of the intersection point (“0 h” time-point) on an Olympus IX50 inverted microscope, immediately followed by treatment with the respective inhibitor and 2 mM thymidine. Phase-contrast images of the intersection point were acquired every 2 hours for 12 hours, continuing incubation at 37° C. in 5% CO2 in-between time points. Using ImageJ, the distances between each pair of neighboring vertices of the intersection point at each time-point were measured and normalized to the “0 h” sample.
RPE-hTERT Flp-In cells, propagated in DME M:F12 media with 10% fetal bovine serum at 37° C. in a 5% CO2 humidified incubator, were grown to confluence in 6-well tissue culture plates. One day prior to performing the wound healing assay, the medium was exchanged to also include 2 mM thymidine, so that the cells would stop dividing.
A cross-shaped wound was scratched into each well, and the cells imaged by phase contrast microscopy using at 4× magnification using a Olympus IX50 Inverted microscope. Then the cell media was exchanged to include vehicle (DMSO at 0.01%), 50 nM FQI2-34, 100 nM FQI2-34, or 200 nM FQI2-34; 2 mM thymidine was maintained throughout, as well. Cells were imaged again at 2 h, 4h, 6h, and 8h, in order to measure the migration of the cells into the wound.
Each of the 4 lines across the vertices of the “X” were individually measured from each set of images using ImageJ. Relative distances of cell migration into the wound were obtained by subtracting each of the lengths for 2-8 hour timepoints from the length at the 0 hour timepoint for that line and that sample. The averages of the four changes in lengths per sample were then plotted over time for each concentration of FQI2-34, from […], using Prism software. Triplicate technical replicates were performed for each concentration.

[10] = test system: RhoA/ROCK pathway in FH-B cells; assay: Phospho-MLC2 immunoblot (RhoA/ROCK pathway); assay type: cell-based, human; settings: 1 μM taxol 30 minutes, then 4 μM FQI1 10 minutes
Protocol: For analysis of phosphorylated MLC2, FH-B cells were treated as indicated in the figure legend, washed with PBS and incubated for 5 minutes in lysis buffer (50 mM Tris-HCl pH 8.0, 50 mM NaF, 5 mM MgCl2, 150 mM NaCl, 1% Triton X-100) supplemented with Tricine Sample Buffer (Bio-rad, 1610739), protease inhibitor cocktail (1:200), phosphatase inhibitor cocktail (1:100), and 1% ([…]. Lysates were incubated at 100° C. for 15 minutes and centrifuged at 21,000×g for 10 minutes prior to SDS-PAGE.
as §3, with “Secondary antibodies included Goat anti-Rabbit HRP (Thermo Fisher Scientific, 31460; 1:10,000 for anti-α-tubulin; 1:5,000 for anti-phospho MYL9), and Goat anti-Mouse HRP (Thermo Fisher Scientific, 62-6520; 1:5,000 for anti-acetylated tubulin; 1:10,000-1:20,000 for anti-β-actin). Membranes were placed into Pierce™ ECL Western Blotting Substrate (Thermo Fisher Scientific, 32106). Autoradiography film was exposed to each membrane for various times to ensure acquisition of non-saturated exposures.” left out

interaction of LSF and β-catenin (co-immunoprecipitation) [1]	fraction unbound [2]	fraction unbound [3]	Compound	microtubule stability and α-tubulin acetylation in the microtubule fraction [7]	microtubule stability and α-tubulin acetylation in the microtubule fraction [8]	other results
consistently reduced this interaction	0.07	0.05	CCOc1cc(N(C)C)ccc1C1CC(=O)Nc2cc3c(cc21)OCO3 (stereo not drawn) [FQI-34, 8-(4-(dimethylamino)-2-ethoxyphenyl)-7,8-dihydro-[1,3]dioxolo[4,5-g]quinolin-6(5H)-one]			
consistently reduced this interaction	0.07	0.05	CCOc1cc(N(C)C)ccc1C1CC(=O)Nc2cc3c(cc21)OCCO3 (stereo not drawn) [FQI-37, 9-(4-(dimethylamino)-2-ethoxyphenyl)-2,3,8,9-tetrahydro-[1,4]dioxino[2,3-g]quinolin-7(6H)-one]			
			CC(C)COc1cc(N(C)C)ccc1C1CC(=O)Nc2cc3c(cc21)OCO3 (stereo not drawn) [FQI-234, 8-(4-(dimethylamino)-2-isobutoxyphenyl)-7,8-dihydro-[1,3]dioxolo[4,5-g]quinolin-6(5H)-one]			stained tumor tissue, microscope images [4]: more organized, interstitium and differentiated tumor
			COC(=O)Nc1nc2ccc(C(=O)c3cccs3)cc2[nH]1 [nocodazole, reference compound]	destabilizes and deacetylates microtubules	destabilizes and deacetylates microtubules	decrease in cell spreading area [5]: decrease in cell spreading area was phenocopied; circularity [6]: significantly more circular in shape; migration of cells into the wound [9]: hindered RPE cells from migrating into the wound
			CC(=O)O[C@H]1C(=O)[C@@]2(C)[C@H]([C@H](OC(=O)c3ccccc3)[C@]3(O)C[C@H](OC(=O)[C@H](O)[C@@H](NC(=O)c4ccccc4)c4ccccc4)C(C)=C1C3(C)C)[C@]1(OC(C)=O)CO[C@@H]1C[C@@H]2O [taxol]	stabilizes and hyperacetylates microtubules	stabilizes and hyperacetylates microtubules	FQI1-induced increase in MLC2 phosphorylation after taxol preincubation [10]: abrogated
